Results taken from patent publication US20130112197A1, “OPERATING METHOD FOR AN AEROSOL DELIVERY DEVICE AND AEROSOL DELIVERY DEVICE” (PARI Pharma GmbH, priority 2010, published 2013).

Assay: clinical trial: nasal and paranasal aerosol deposition by gamma camera imaging
Type: in vivo, human
Text: The method of the clinical trial was: Sinus air ventilation, nasal and paranasal aerosol deposition as well as nasal clearance of aerosols delivered by different pulsating airflows, such as a combined mode in comparison to intermittent mode. This was studied in 12 healthy volunteers using gamma camera imaging with 81 mKr gas and 99 mTc-DTPA aerosol. Masking techniques were used to visualize and quantify nasal and sinus aerosol deposition and retention.

O=C([O-])CN(CCN(CC(=O)[O-])CC(=O)[O-])CCN(CC(=O)[O-])CC(=O)[O-].[99Tc+4] [99 mTc-DTPA]
total sinus deposition in % of the deposited activity (12 healthy volunteers, maxillary and sphenoid sinuses, pulsating airflows): up to 24% | total sinus deposition in % of the deposited activity (combined mode, proband 1, post FESS volunteer): 14% | total sinus deposition in % of the deposited activity (combined mode, proband 2, normal volunteer): 6% | total sinus deposition in % of the deposited activity (intermittent mode, proband 1, post FESS volunteer): 24% | total sinus deposition in % of the deposited activity (intermittent mode, proband 2, normal volunteer): 0%
